The numbers were not newly measured in patent publication US20150209310A1, “NACA FOR THE TREATMENT OF CHRONIC OR LOW IMPACT BRAIN TRAUMA” (Brighton Biotech, Inc., priority 2014, published 2015), which cites them from elsewhere.

For this data set the following is noted: background statement.

For `CC(=O)N[C@@H](CS)C(=O)O` [NAC, N-acetyl-L-cysteine], the “crossing of the blood-brain barrier” value is given as “inability to cross the blood-brain barrier”.
